This is an account of results in patent publication US5580982A, “Substituted 3-(aminoalkylamino)-1,2-benzisoxazoles and related compounds” (priority 1995, dated 1996).

One test deals with T1, MAO-B (Rattus norvegicus, UniProt P19643).
T1 construct: the whole brain without cerebellum was dissected rapidly and frozen on dry ice; from tissue; host or cells: whole brain without cerebellum of orally dosed male Wistar rats, homogenate
T1 sequence (P19643 1-520): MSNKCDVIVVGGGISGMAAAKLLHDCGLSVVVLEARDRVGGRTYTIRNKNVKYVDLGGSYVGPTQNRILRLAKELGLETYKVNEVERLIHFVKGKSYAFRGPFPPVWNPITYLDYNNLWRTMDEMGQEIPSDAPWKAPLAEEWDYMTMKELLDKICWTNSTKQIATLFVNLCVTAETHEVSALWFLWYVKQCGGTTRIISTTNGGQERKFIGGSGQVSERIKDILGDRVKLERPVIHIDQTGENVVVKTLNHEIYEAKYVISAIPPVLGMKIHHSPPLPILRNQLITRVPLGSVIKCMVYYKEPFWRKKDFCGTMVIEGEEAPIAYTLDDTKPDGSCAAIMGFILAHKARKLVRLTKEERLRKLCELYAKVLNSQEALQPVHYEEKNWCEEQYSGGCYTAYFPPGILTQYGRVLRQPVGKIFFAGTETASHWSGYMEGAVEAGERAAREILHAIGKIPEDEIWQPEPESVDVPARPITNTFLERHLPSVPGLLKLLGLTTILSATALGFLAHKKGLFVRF
In words: Inhibition of Type B monoamine oxidase activity in rat brain synaptosomes. The settings on record: substrate [^14 C]-PEA 200 μM; read-out: Inhibitory Concentration - IC50 MAO-B. In kind it is biochemical. The source says: Male Wistar rats weighing 150-250 grams were sacrificed and the brains rapidly removed.

The next test has as its target T2, MAO-A (Rattus norvegicus, UniProt P21396).
T2 construct: the whole brain without cerebellum was dissected rapidly and frozen on dry ice; from tissue; host or cells: whole brain without cerebellum of orally dosed male Wistar rats, homogenate
T2 sequence (P21396 1-526): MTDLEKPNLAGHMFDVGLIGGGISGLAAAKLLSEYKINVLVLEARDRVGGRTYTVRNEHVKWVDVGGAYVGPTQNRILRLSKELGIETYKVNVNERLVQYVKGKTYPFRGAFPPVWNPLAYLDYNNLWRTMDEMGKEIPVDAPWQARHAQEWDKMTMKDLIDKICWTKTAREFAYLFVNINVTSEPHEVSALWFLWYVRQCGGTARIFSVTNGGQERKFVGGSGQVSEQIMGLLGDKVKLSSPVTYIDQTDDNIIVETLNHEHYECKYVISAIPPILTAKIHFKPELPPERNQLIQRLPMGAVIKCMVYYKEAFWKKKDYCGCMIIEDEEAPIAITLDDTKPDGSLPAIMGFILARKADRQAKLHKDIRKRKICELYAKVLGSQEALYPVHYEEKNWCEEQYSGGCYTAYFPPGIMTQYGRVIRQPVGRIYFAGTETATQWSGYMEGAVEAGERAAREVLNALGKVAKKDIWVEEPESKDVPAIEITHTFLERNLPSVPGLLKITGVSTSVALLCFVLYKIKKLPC
In words: Inhibition of Type A monoamine oxidase activity in rat brain synaptosomes. It is filed as biochemical. The note with it: substrate [^3 H]-5HT 200 μM; read-out: Inhibitory Concentration - IC50 MAO-A. The procedure:
Inhibition of Type A and Type B Monoamine Oxidase Activity in Rat Brain Synaptosomes
To determine the selective inhibition of the two forms of monoamine oxidase (MAO).
Although various methods for measuring MAO activity are available, the described method involves the extraction of the radiolabeled deaminated metabolites of [^3 H]-5HT or [^14 C]-β-phenethylamine. This procedure allows MAO-A and MAO-B activities to be measured either simultaneously or individually (3).
c. Add 12 μl of [^3 H]-5HT to 2 ml of the 5 mM 5HT solution. (Final amine concentration in the assay is 200 μM: see below.)
5. Equal amounts of MAO-A (5HT) and MAO-B (PEA) substrates are combined for simultaneously testing both MAO types, i.e. mixed stock solution of 2.5 mM 5HT and 2.5 mM PEA, 40 μl of this mixed solution gives a 200 μM final concentration of each amine in the assay. When testing only one MAO type, the individual 5 mM stock solutions must be diluted 1:1 with distilled water prior to adding 40 μl to the incubation mixture; i.e., same 200 μM final amine concentration.
Male Wistar rats weighing 150-250 grams were sacrificed and the brains rapidly removed. Whole brain minus cerebellum was homogenized in 30 volumes of ice-cold, phosphate-buffered 0.25M sucrose, using a Potter-Elvejhem homogenizer. The homogenate was centrifuged at 1000 g for 10 minutes and the supernatant (S1) decanted and recentrifuged at 18,000 g for 20 minutes. The resulting pellet (P2) was resuspended in fresh 0.25M sucrose and served as the tissue source for mitochondrial MAO.
Tubes are preincubated for 15 minutes at 37° C. and the assay is started by adding 40 μl of combined substrate ([^3 H]-5HT and [^14 C]-PEA) at 15 second intervals. The tubes are incubated for 30 minutes at 37° C. and the reaction stopped by the addition of 0.3 ml 2N HCl. Tissue blank values are determined by adding the acid before the radioactive substrate. The oxidative products of the reaction are extracted with ethyl acetate/toluene (1:1). 5 ml of this mixture is added to the tubes. The resultant mixture is vortexed for 15 seconds to extract the deaminated metabolites into the organic phase and the latter is allowed to separate from the aqueous phase. The tubes are placed in acetone/dry ice bath to freeze the aqueous layer. When this layer is frozen, the top organic layer is poured into a scintillation vial. 10 ml of Liquiscint is added and the samples are counted using window settings for ^14 C in one channel and ^3 H in the second channel. IC50 values are determined by log-probit analysis.

Molecules are shown by their SMILES.

For the compound `COc1ccc2c(N(C)CCN3CCOCC3)noc2c1` [6-Methoxy-N-methyl-N-[2-(4-morpholinyl)ethyl]-1,2-benzisoxazol-3-amine], the IC50 on MAO-B was greater than 1000 µM; at MAO-A it was 13 µM.

Regarding `COc1cc(Br)c2oc(C3CCNCC3)cc2c1` [Brofaromine, reference compound], the IC50 at MAO-A was found to be 0.18 µM.

`CNCCNc1noc2cc(OC)ccc12` [6-Methoxy-N-[2-(methylamino)ethyl)-1,2-benzisoxazol-3-amine]: the IC50 at MAO-A worked out at 25 µM.

`COc1ccc2c(N3CCN(c4ccncc4)CC3)noc2c1` [6-Methoxy-3-[1-(4-pyridyl)piperazinyl)]-1,2-benzisoxazole]: the IC50 on MAO-B was found to be 45 µM; on MAO-A it was 10 µM.
